Source: patent US10035760B2, “Inhibitors of human immunodeficiency virus replication” (priority 2013, dated 2018)
Like-named read-outs stand apart in the source and are kept apart here.

System: recombinant NL4-3 virus (Renilla luciferase) in MT-2 cells
Test: HIV cell culture assay (antiviral activity, luciferase readout in infected MT-2 cells)
Type: cell-based
Conditions: Renilla
Description: HIV cell culture assay—MT-2 cells, 293T cells and the proviral DNA clone of NL4-3 virus were obtained from the NIH AIDS Research and Reference Reagent Program. MT-2 cells were propagated in RPMI 1640 media supplemented with 10% heat inactivated fetal bovine serum (FBS), 100 ug/ml penicillin G and up to 100 units/ml streptomycin. The 293T cells were propagated in DMEM media supplemented with 10% heat inactivated FBS, 100 ug/ml penicillin G and 100 ug/ml streptomycin. A recombinant NL4-3 proviral clone, in which a section of the nef gene was replaced with the Renilla luciferase gene, was used to make the reference virus used in these studies. The recombinant virus was prepared through transfection of the recombinant NL4-3 proviral clone into 293T cells using Transit-293 Transfection Reagent from Mirus Bio LLC (Madison, Wis.). Supernatent was harvested after 2-3 days after transfection, and the amount of virus present was titered in MT-2 cells using luciferase enzyme activity as a marker. Luciferase activity was quantitated using the EnduRen Live Cell Substrate from Promega (Madison, Wis.). Antiviral activities of compounds toward the recombinant virus were quantified by measuring luciferase activity in MT-2 cells infected for 4-5 days with the recombinant virus in the presence of serial dilutions of the compound.
The 50% effective concentration (EC50) was calculated by using the exponential form of the median effect equation where (Fa)=1/[1+(ED50/drug conc.)^m](Johnson V A, Byington R T. Infectivity Assay. In Techniques in HIV Research. ed. Aldovini A, Walker B D. 71-76. New York: Stockton Press. 1990).

[1] = NL43, read-out: Activity, antiviral activity class, recombinant NL4-3 Renilla luciferase virus in MT-2 cells
[2] = NL43, recombinant NL4-3 Renilla luciferase virus in MT-2 cells

Row | Structure (SMILES) | EC50 [1] [nM] | EC50 [2] [nM]
1 | CN(C(=O)[C@H](Cc1ccccc1)NC(=O)NS(=O)(=O)c1ccccc1OC(F)(F)F)c1ccc2c(c1)OCO2 [Example 14, (S)—N-(benzo[d][1,3]dioxol-5-yl)-N-methyl-3-phenyl-2-(3-((2-(trifluoromethoxy)phenyl)sulfonyl)ureido)propanamide] | < 100 | –
2 | CN(C(=O)[C@H](Cc1ccccc1)NC(=O)NS(=O)(=O)c1cccc(Cl)c1Cl)c1ccc2c(c1)OCO2 [Example 15, (S)—N-(benzo[d][1,3]dioxol-5-yl)-2-(3-((2,3-dichlorophenyl)sulfonyl)ureido)-N-methyl-3-phenylpropanamide] | < 100 | –
3 | Cc1ccc(F)cc1S(=O)(=O)NC(=O)N[C@@H](Cc1ccccc1)C(=O)N(C)c1ccc2c(c1)OCO2 [Example 16, (S)—N-(benzo[d][1,3]dioxol-5-yl)-2-(3-((5-fluoro-2-methylphenyl)sulfonyl)ureido)-N-methyl-3-phenylpropanamide] | < 100 | –
4 | CN(C(=O)[C@H](Cc1ccccc1)NC(=O)NS(=O)(=O)c1ccccc1C(F)(F)F)c1ccc2c(c1)OCO2 [Example 17, (S)—N-(benzo[d][1,3]dioxol-5-yl)-N-methyl-3-phenyl-2-(3-((2-(trifluoromethyl)phenyl)sulfonyl)ureido)propanamide] | 100 to 1000 | –
5 | CN(C(=O)[C@H](Cc1ccccc1)NC(=O)NS(=O)(=O)c1ccc(F)cc1F)c1ccc2c(c1)OCO2 [Example 18, (S)—N-(benzo[d][1,3]dioxol-5-yl)-2-(3-((2,4-difluorophenyl)sulfonyl)ureido)-N-methyl-3-phenylpropanamide] | 100 to 1000 | 200
6 | CN(C(=O)[C@H](Cc1ccccc1)NC(=O)NS(=O)(=O)c1cccc(Br)c1)c1ccc2c(c1)OCO2 [Example 19, (S)—N-(benzo[d][1,3]dioxol-5-yl)-2-(3-((3-bromophenyl)sulfonyl)ureido)-N-methyl-3-phenylpropanamide] | 100 to 1000 | –
7 | COc1cccc(S(=O)(=O)NC(=O)N[C@@H](Cc2ccccc2)C(=O)N(C)c2ccc3c(c2)OCO3)c1 [Example 20, (S)—N-(benzo[d][1,3]dioxol-5-yl)-2-(3-((3-methoxyphenyl)sulfonyl)ureido)-N-methyl-3-phenylpropanamide] | < 100 | 90
8 | CN(C(=O)[C@H](Cc1ccccc1)NC(=O)NS(=O)(=O)c1ccc([N+](=O)[O-])cc1)c1ccc2c(c1)OCO2 [Example 21, (S)—N-(benzo[d][1,3]dioxol-5-yl)-N-methyl-2-(3-((4-nitrophenyl)sulfonyl)ureido)-3-phenylpropanamide] | 1000 to 10000 | –
9 | CN(C(=O)[C@H](Cc1ccccc1)NC(=O)NS(=O)(=O)c1ccc(F)cc1)c1ccc2c(c1)OCO2 [Example 22, (S)—N-(benzo[d][1,3]dioxol-5-yl)-2-(3-((4-fluorophenyl)sulfonyl)ureido)-N-methyl-3-phenylpropanamide] | 100 to 1000 | –
10 | COC(=O)c1ccccc1S(=O)(=O)NC(=O)N[C@@H](Cc1ccccc1)C(=O)N(C)c1ccc2c(c1)OCO2 [Example 23, (S)-methyl 2-(N-((1-(benzo[d][1,3]dioxol-5-yl(methyl)amino)-1-oxo-3-phenylpropan-2-yl)carbamoyl)sulfamoyl)benzoate] | 1000 to 10000 | –
11 | CN(C(=O)[C@H](Cc1ccccc1)NC(=O)NS(=O)(=O)CCc1ccccc1)c1ccc2c(c1)OCO2 [Example 24, (S)—N-(benzo[d][1,3]dioxol-5-yl)-N-methyl-2-(3-(phenethylsulfonyl)ureido)-3-phenylpropanamide] | 100 to 1000 | –
12 | CN(C(=O)[C@H](Cc1ccccc1)NC(=O)NS(=O)(=O)CCCc1ccccc1)c1ccc2c(c1)OCO2 [Example 25, (S)—N-(benzo[d][1,3]dioxol-5-yl)-N-methyl-3-phenyl-2-(3-((3-phenylpropyl)sulfonyl)ureido)propanamide] | 100 to 1000 | 930
13 | CN(C(=O)[C@H](Cc1ccccc1)NC(=O)NS(=O)(=O)c1ccc(F)c(F)c1)c1ccc2c(c1)OCO2 [Example 26, (S)—N-(benzo[d][1,3]dioxol-5-yl)-2-(3-((3,4-difluorophenyl)sulfonyl)ureido)-N-methyl-3-phenylpropanamide] | 100 to 1000 | –
14 | Cc1ccc(S(=O)(=O)NC(=O)N[C@@H](Cc2ccccc2)C(=O)N(C)c2ccc3c(c2)OCO3)s1 [Example 27, (S)—N-(benzo[d][1,3]dioxol-5-yl)-N-methyl-2-(3-((5-methylthiophen-2-yl)sulfonyl)ureido)-3-phenylpropanamide] | 100 to 1000 | –
15 | Cc1c(Cl)cccc1S(=O)(=O)NC(=O)N[C@@H](Cc1ccccc1)C(=O)N(C)c1ccc2c(c1)OCO2 [Example 28, (S)—N-(benzo[d][1,3]dioxol-5-yl)-2-(3-((3-chloro-2-methylphenyl)sulfonyl)ureido)-N-methyl-3-phenylpropanamide] | < 100 | –
16 | CN(C(=O)[C@H](Cc1ccccc1)NC(=O)NS(=O)(=O)c1ccccc1Br)c1ccc2c(c1)OCO2 [Example 29, (S)—N-(benzo[d][1,3]dioxol-5-yl)-2-(3-((2-bromophenyl)sulfonyl)ureido)-N-methyl-3-phenylpropanamide] | < 100 | –
17 | COc1ccc(OC)c(S(=O)(=O)NC(=O)N[C@@H](Cc2ccccc2)C(=O)N(C)c2ccc3c(c2)OCO3)c1 [Example 30, (S)—N-(benzo[d][1,3]dioxol-5-yl)-2-(3-((2,5-dimethoxyphenyl)sulfonyl)ureido)-N-methyl-3-phenylpropanamide] | < 100 | –
18 | CN(C(=O)[C@H](Cc1ccccc1)NC(=O)NS(=O)(=O)c1cccs1)c1ccc2c(c1)OCO2 [Example 31, (S)—N-(benzo[d][1,3]dioxol-5-yl)-N-methyl-3-phenyl-2-(3-(thiophen-2-ylsulfonyl)ureido)propanamide] | 100 to 1000 | –
19 | CN(C(=O)[C@H](Cc1ccccc1)NC(=O)NS(=O)(=O)c1cc(Cl)sc1Cl)c1ccc2c(c1)OCO2 [Example 32, (S)—N-(benzo[d][1,3]dioxol-5-yl)-2-(3-((2,5-dichlorothiophen-3-yl)sulfonyl)ureido)-N-methyl-3-phenylpropanamide] | < 100 | 70
20 | Cc1nn(C)c(Cl)c1S(=O)(=O)NC(=O)N[C@@H](Cc1ccccc1)C(=O)N(C)c1ccc2c(c1)OCO2 [Example 33, (S)—N-(benzo[d][1,3]dioxol-5-yl)-2-(3-((5-chloro-1,3-dimethyl-1H-pyrazol-4-yl)sulfonyl)ureido)-N-methyl-3-phenylpropanamide] | 100 to 1000 | 210
21 | CN(C(=O)[C@H](Cc1ccccc1)NC(=O)NS(=O)(=O)c1ccccc1F)c1ccc2c(c1)OC(F)(F)O2 [Example 34, (S)—N-(2,2-difluorobenzo[d][1,3]dioxol-5-yl)-2-(3-((2-fluorophenyl)sulfonyl)ureido)-N-methyl-3-phenylpropanamide] | 100 to 1000 | –
22 | CN(C(=O)[C@H](Cc1cc(F)cc(F)c1)NC(=O)NS(=O)(=O)c1ccccc1F)c1ccc2c(c1)OC(F)(F)O2 [Example 35, (S)—N-(2,2-difluorobenzo[d][1,3]dioxol-5-yl)-3-(3,5-difluorophenyl)-2-(3-((2-fluorophenyl)sulfonyl)ureido)-N-methylpropanamide] | 100 to 1000 | –
23 | CN(C(=O)[C@H](Cc1ccccc1)NC(=O)NS(=O)(=O)c1ccccc1)c1ccc2c(c1)OC(F)(F)O2 [Example 36, (S)—N-(2,2-difluorobenzo[d][1,3]dioxol-5-yl)-N-methyl-3-phenyl-2-(3-(phenylsulfonyl)ureido)propanamide] | 1000 to 10000 | –
24 | Cc1ccccc1S(=O)(=O)NC(=O)N[C@@H](Cc1ccccc1)C(=O)N(C)c1ccc2c(c1)OC(F)(F)O2 [Example 37, (S)—N-(2,2-difluorobenzo[d][1,3]dioxol-5-yl)-N-methyl-3-phenyl-2-(3-(o-tolylsulfonyl)ureido)propanamide] | 100 to 1000 | –
25 | CN(C(=O)[C@H](Cc1ccccc1)NC(=O)NS(=O)(=O)c1ccccc1Cl)c1ccc2c(c1)OC(F)(F)O2 [Example 38, (S)-2-(3-((2-chlorophenyl)sulfonyl)ureido)-N-(2,2-difluorobenzo[d][1,3]dioxol-5-yl)-N-methyl-3-phenylpropanamide] | 100 to 1000 | 310
26 | CN(C(=O)[C@H](Cc1cc(F)cc(F)c1)NC(=O)NS(=O)(=O)c1ccccc1Cl)c1ccc2c(c1)OC(F)(F)O2 [Example 39, (S)-2-(3-((2-chlorophenyl)sulfonyl)ureido)-N-(2,2-difluorobenzo[d][1,3]dioxol-5-yl)-3-(3,5-difluorophenyl)-N-methylpropanamide] | 100 to 1000 | –
27 | Cc1ccccc1S(=O)(=O)NC(=O)N[C@@H](Cc1cc(F)cc(F)c1)C(=O)N(C)c1ccc2c(c1)OC(F)(F)O2 [Example 40, (S)—N-(2,2-difluorobenzo[d][1,3]dioxol-5-yl)-3-(3,5-difluorophenyl)-N-methyl-2-(3-(o-tolylsulfonyl)ureido)propanamide] | 100 to 1000 | –
28 | CN(C(=O)[C@H](Cc1cc(F)cc(F)c1)NC(=O)NS(=O)(=O)c1ccccc1)c1ccc2c(c1)OC(F)(F)O2 [Example 41, (S)—N-(2,2-difluorobenzo[d][1,3]dioxol-5-yl)-3-(3,5-difluorophenyl)-N-methyl-2-(3-(phenylsulfonyl)ureido)propanamide] | 100 to 1000 | –
